For 29 compounds, IC50 results are on record in patent US9090593B2, “Bicyclic compounds as Pim inhibitors” (AMGEN INC., priority 2010, dated 2015).

For assay [1], the target named is T1, full length recombinant Pim-1 protein (Homo sapiens, UniProt P11309).
T1 construct: by full length recombinant Pim-1, Pim-2, or Pim-3 protein; hexahistidine tag followed by a thrombin cleavage site (N); made in house; host or cells: Sf9 (baculovirus) or E. coli (pET28)
The assay is described as follows: Pim-1 enzyme assay (HTRF, phosphorylation of biotinylated-BAD (S112) peptide). As to conditions: read-out: Pim_1_IC50. The class given is biochemical. Put shortly:
(§1)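 Full-length His-tagged Pim-1 or Pim-2 (Sf9 or E. coli expressed, purified) phosphorylated biotinylated BAD (S112) peptide in 60 mM Hepes pH 7.0, 0.05% BSA, 2 mM DTT. Reaction stopped with 3 mM EDTA; phospho-BAD read by HTRF with Eu anti-phospho-BAD antibody and streptavidin-APC. IC50 from percent of control by 4-parameter logistic fit.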
On the technique in general: In TR-FRET formats the signal depends on donor and acceptor labels being close together.

The target of assay [2] is T2, full length recombinant Pim-2 protein (Homo sapiens, UniProt Q9P1W9).
T2 construct: by full length recombinant Pim-1, Pim-2, or Pim-3 protein; hexahistidine tag followed by a thrombin cleavage site (N); made in house; host or cells: Sf9 (baculovirus) or E. coli (pET28)
T2 sequence (Q9P1W9 whole entry): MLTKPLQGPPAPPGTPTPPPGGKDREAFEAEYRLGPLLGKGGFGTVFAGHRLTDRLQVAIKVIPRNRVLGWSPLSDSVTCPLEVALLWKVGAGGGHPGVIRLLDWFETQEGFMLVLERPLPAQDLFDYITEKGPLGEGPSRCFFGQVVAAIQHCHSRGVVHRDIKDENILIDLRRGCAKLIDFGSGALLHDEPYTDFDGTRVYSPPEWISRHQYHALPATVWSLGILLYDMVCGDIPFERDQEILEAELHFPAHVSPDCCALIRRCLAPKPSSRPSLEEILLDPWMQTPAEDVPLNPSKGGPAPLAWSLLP
The assay is described as follows: Pim-2 enzyme assay (HTRF, phosphorylation of biotinylated-BAD (S112) peptide). It counts as biochemical. Conditions: read-out: Pim2_IC50. Put shortly:
as §1

The target in assay [3] is T3, Pim-1 stably transfected into the U2OS human osteogenic sarcoma line (Homo sapiens, UniProt P11309).
T3 construct: expressed in transfected cells; host or cells: U2OS human osteogenic sarcoma line
T3 sequence (P11309 whole entry): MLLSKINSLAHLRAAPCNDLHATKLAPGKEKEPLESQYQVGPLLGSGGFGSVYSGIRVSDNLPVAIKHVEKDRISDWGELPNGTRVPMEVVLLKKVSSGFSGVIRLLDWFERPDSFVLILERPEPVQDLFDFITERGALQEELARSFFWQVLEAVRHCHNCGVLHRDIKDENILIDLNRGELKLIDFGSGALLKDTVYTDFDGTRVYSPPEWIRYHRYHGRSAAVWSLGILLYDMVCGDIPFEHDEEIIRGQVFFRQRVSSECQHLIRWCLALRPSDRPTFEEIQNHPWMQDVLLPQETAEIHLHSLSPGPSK
The assay is described as follows: Pim cell assay, phospho-BAD normalized against total BAD, U2OS stably transfected with Pim-1. The class given is cell-based. Conditions: U2OS stably transfected with Pim-1; phospho-BAD normalized against total BAD; 29 min incubation; read-out: Pim1_Cell_IC50_. On the procedure:
(§2) The cell lines used in the assay were generated by the stable transfection of either Pim-1 or Pim-2 into the U2OS human osteogenic sarcoma line. The assay for determination of the Pim activity in the engineered U2OS cell lines measures levels of phospho-BAD normalized against total BAD protein levels. It was conducted as follows:
(§3) The adherent cells were dissociated from the flasks using non-enzymatic cell dissociation solution (Sigma # C5914). […] The cells were then incubated overnight at 37° C., 5% CO2.
(§4) In addition to the 10-point dosing curve of the test compound, DMSO alone was run as the high control.
(§5) This dilution in DMSO was then diluted again into cell growth medium. Aliquots (12 uL) of the compound diluted in growth medium were then transferred to the appropriate wells of the 96-well plates containing cells to yield a final DMSO concentration of 0.3%.
(§6) The cell plates containing lysis buffer were then immediately stored at −70° C.
(§7) These prepared lysates were then assayed for phospho and total BAD according to the manufacturer's protocols (Meso Scale Diagnostics, Cat# K15103C-3 & # K15103D-3). The plates were read on the MSD Sector Imager 6000, and results were calculated according to the assay protocols ((% Phosphoprotein=((2×Phospho signal)/(Phospho signal+Total signal))×100)).

Assay [4] addresses T4, Pim-2 stably transfected into the U2OS human osteogenic sarcoma line (Homo sapiens, UniProt Q9P1W9).
T4 construct: expressed in transfected cells; host or cells: U2OS human osteogenic sarcoma line
The assay can be described thus: Pim cell assay, phospho-BAD normalized against total BAD, U2OS stably transfected with Pim-2. It counts as cell-based. As to conditions: U2OS stably transfected with Pim-2; phospho-BAD normalized against total BAD; 29 min incubation; read-out: Pim2_Cell_IC50_. On the procedure:
as §2, §3, §4, §5, §6, §7

T1 sequence (P11309 whole entry): as above
T4 sequence (Q9P1W9 whole entry): as the sequence (Q9P1W9 whole entry) above

In the case of `OCc1cccc(-c2ccc3[nH]cc(-c4cncc(O[C@@H]5CCCNC5)n4)c3c2)c1` [Example 315], the IC50 in assay [1] was 7 nM; in assay [2] it was 24 nM; in assay [3] it was 444 nM; in assay [4], 9060 nM.

As for `OCc1ccc(-c2ccc3[nH]cc(-c4cncc(O[C@@H]5CCCNC5)n4)c3c2)cc1` [Example 316, (4-(3-(6-((3R)-3-piperidinyloxy)-2-pyrazinyl)-1H-indol-5-yl)phenyl)methanol], the IC50 came out at 2 nM in assay [1], 9 nM in assay [2], 103 nM in assay [3] and 3400 nM in assay [4].

Take `COc1ccc(-c2ccc3[nH]cc(-c4cncc(O[C@@H]5CCCNC5)n4)c3c2)cc1` [Example 321]: the IC50 stood at 5 nM in assay [1], 19 nM in assay [2], 662 nM in assay [3] and 23600 nM in assay [4].

As to `CC(C)Oc1ccc(-c2ccc3[nH]cc(-c4cncc(O[C@@H]5CCCNC5)n4)c3c2)cc1` [Example 324], the IC50 in assay [1] is 4 nM; in assay [2], 34 nM; in assay [3], 957 nM; in assay [4], more than 31600 nM.

As for `N#Cc1ccccc1-c1ccc2[nH]cc(-c3cncc(O[C@@H]4CCCNC4)n3)c2c1` [Example 326], the IC50 in assay [1] was 3 nM; in assay [2], 10 nM; in assay [3] it was 314 nM; in assay [4], 7190 nM.

`CC(=O)Nc1ccc(-c2ccc3[nH]cc(-c4cncc(O[C@@H]5CCCNC5)n4)c3c2)cc1` [Example 327]: the IC50 in assay [1] worked out at 5 nM; in assay [2], 19 nM; in assay [3] it was 666 nM; in assay [4] it was 8060 nM.

On to `N#Cc1ncccc1-c1ccc2[nH]cc(-c3cncc(O[C@@H]4CCCNC4)n3)c2c1` [Example 333], for which the IC50 in assay [1] was 11 nM; in assay [2], 40 nM; in assay [3], 803 nM; in assay [4], more than 10000 nM.

Take `c1cc2[nH]cc(-c3cncc(O[C@@H]4CCCNC4)n3)c2cc1-c1cnc2c(c1)CCCN2` [Example 335]: the IC50 in assay [1] was 5 nM; in assay [2], 72 nM; in assay [3] it was 1060 nM; in assay [4], more than 31600 nM.

Turning to `c1cc2cc(-c3ccc4[nH]cc(-c5cncc(O[C@@H]6CCCNC6)n5)c4c3)cnc2[nH]1` [Example 336], the IC50 in assay [1] is 8 nM; in assay [2], 33 nM; in assay [3], 857 nM; in assay [4], more than 10000 nM.

Consider `Cc1n[nH]c2ncc(-c3ccc4[nH]cc(-c5cncc(O[C@@H]6CCCNC6)n5)c4c3)cc12` [Example 339], for which the IC50 in assay [1] is 14 nM; in assay [2], 92 nM; in assay [3], 2580 nM; in assay [4] it was more than 31600 nM.

With `Nc1ccc(-c2ccc3[nH]cc(-c4cncc(O[C@@H]5CCCNC5)n4)c3c2)cc1OC(F)(F)F` [Example 341], the IC50 was 9 nM in assay [1], 69 nM in assay [2], 1270 nM in assay [3] and more than 15800 nM in assay [4].

With `c1cc2c(cc1-c1ccc3[nH]cc(-c4cncc(O[C@@H]5CCCNC5)n4)c3c1)OCO2` [Example 343], the IC50 in assay [1] was 4 nM; in assay [2], 19 nM; in assay [3] it was 1210 nM; in assay [4] it was more than 15800 nM.

With `FC(F)Oc1cccc(-c2ccc3[nH]cc(-c4cncc(O[C@@H]5CCCNC5)n4)c3c2)c1` [Example 344], the IC50 in assay [1] is 9 nM; in assay [2], 68 nM; in assay [3], 3610 nM; in assay [4] it was more than 15800 nM.

As to `COc1ccc(-c2ccc3[nH]cc(-c4cncc(O[C@@H]5CCCNC5)n4)c3c2)cc1OC` [Example 345], the IC50 in assay [1] was 20 nM; in assay [2] it was 157 nM; in assay [3] it was 729 nM; in assay [4] it was more than 15800 nM.

As for `CN1CCOc2cc(-c3ccc4[nH]cc(-c5cncc(O[C@@H]6CCCNC6)n5)c4c3)ccc21` [Example 347], the IC50 in assay [1] amounted to 2 nM; in assay [2] it was 16 nM; in assay [3], 273 nM; in assay [4], 9690 nM.

For the compound `N#CC1(c2cccc(-c3ccc4[nH]cc(-c5cncc(O[C@@H]6CCCNC6)n5)c4c3)c2)CCC1` [Example 350], the IC50 in assay [1] was 6 nM; in assay [2] it was 193 nM; in assay [3] it was 2360 nM; in assay [4] it was more than 15800 nM.

Consider `CC(C)Oc1cccc(-c2ccc3[nH]cc(-c4cncc(O[C@@H]5CCCNC5)n4)c3c2)c1` [Example 360], for which the IC50 in assay [1] was 8 nM; in assay [2], 94 nM; in assay [3], 2720 nM; in assay [4], more than 15800 nM.

With `c1cc(-c2ccc3[nH]nc(-c4cncc(O[C@@H]5CCCNC5)n4)c3c2)nc(C2CC2)n1` [Example 361], the IC50 in assay [1] is 12 nM; in assay [2] it was 71 nM; in assay [3], 2070 nM; in assay [4] it was more than 31600 nM.

Take `CC(C)NC(=O)c1ccc(F)c(-c2ccc3[nH]nc(-c4cncc(N[C@@H]5CCCNC5)n4)c3c2)c1` [Example 362]: the IC50 was 3 nM in assay [1], 7 nM in assay [2], 864 nM in assay [3] and 4150 nM in assay [4].

Take `CC(O)c1cccc(-c2ccc3[nH]nc(-c4cncc(O[C@@H]5CCCNC5)n4)c3c2)c1` (some centres unmarked) [Example 367]: the IC50 in assay [1] was 14 nM; in assay [2], 27 nM; in assay [3] it was 868 nM; in assay [4], 8800 nM.

As for `CC(C)Nc1cncc(-c2n[nH]c3ccc(-c4cncc(C5CC5)n4)cc23)n1` [Example 368, 6-(5-(6-cyclopropyl-2-pyrazinyl)-1H-indazol-3-yl)-N-(1-methylethyl)-2-pyrazinamine], the IC50 came to 6 nM in assay [1], 37 nM in assay [2], 23 nM in assay [3] and 1770 nM in assay [4].

On to `c1cc2[nH]nc(-c3cncc(OC4CCNCC45CC5)n3)c2cc1-c1cncc(C2CC2)n1` (centres unmarked) [Example 372], for which the IC50 in assay [1] is 1 nM; in assay [2] it was 7 nM; in assay [3], 200 nM; in assay [4], more than 10000 nM.

In the case of `c1cc2[nH]nc(-c3cncc(O[C@@H]4CCNCC45CC5)n3)c2cc1-c1cncc(C2CC2)n1` [Example 373, 3-(6-((8R)-5-azaspiro[2.5]oct-8-yloxy)-2-pyrazinyl)-5-(6-cyclopropyl-2-pyrazinyl)-1H-indazole], the IC50 was 1 nM in assay [1], 5 nM in assay [2], 130 nM in assay [3] and 3370 nM in assay [4].

For the compound `c1cc2[nH]nc(-c3cncc(O[C@H]4CCNCC45CC5)n3)c2cc1-c1cncc(C2CC2)n1` [Example 374, 3-(6-((8S)-5-azaspiro[2.5]oct-8-yloxy)-2-pyrazinyl)-5-(6-cyclopropyl-2-pyrazinyl)-1H-indazole], the IC50 turned out to be 1 nM in assay [1], 17 nM in assay [2], 312 nM in assay [3] and 8090 nM in assay [4].

For the compound `COc1cncc(-c2n[nH]c3ccc(-c4cncc(C5CC5)n4)cc23)n1` [Example 379], the IC50 in assay [1] was 2 nM; in assay [2], 16 nM; in assay [3] it was 657 nM; in assay [4] it was more than 31600 nM.

Turning to `CC(C)Oc1cncc(-c2n[nH]c3ccc(-c4cncc(C5CC5)n4)cc23)n1` [Example 381], the IC50 in assay [1] was 4 nM; in assay [2], 37 nM; in assay [3], 772 nM; in assay [4], more than 31600 nM.

On to `COc1cncc(-c2n[nH]c3ccc(-c4cncc(NC5CC5)n4)cc23)n1` [Example 383, N-cyclopropyl-6-(3-(6-methoxy-2-pyrazinyl)-1H-indazol-5-yl)-2-pyrazinamine], for which the IC50 in assay [1] worked out at 1 nM; in assay [2], 10 nM; in assay [3] it was 44 nM; in assay [4], 21800 nM.

As to `FCCOc1cncc(-c2n[nH]c3ccc(-c4cncc(C5CC5)n4)cc23)n1` [Example 384], the IC50 in assay [1] was 4 nM; in assay [2], 27 nM; in assay [3] it was 207 nM; in assay [4] it was more than 31600 nM.

Turning to `Nc1cncc(-c2ccc3[nH]nc(-c4cncc(OCCF)n4)c3c2)n1` [Example 386, 6-(3-(6-(2-fluoroethoxy)-2-pyrazinyl)-1H-indazol-5-yl)-2-pyrazinamine], the IC50 in assay [1] is 6 nM; in assay [2], 11 nM; in assay [3], 61 nM; in assay [4], more than 31600 nM.
